Laboratory results reported in paper PMC10713593, “Staphylococcus aureus functional amyloids catalyze degradation of β-lactam antibiotics” (Nature Communications, 2023).
Where no end group is shown, it is not given here.

Columns and labels:
[1] = Nitrocefin hydrolysis kinetics (absorbance of degraded nitrocefin at 480 nm; initial rates V0, Michaelis-Menten fit); assay type: biochemical; set-up: Initial nitrocefin-degradation reaction rate, V0: unit not given here; details: for Initial nitrocefin-degradation reaction rate, V0 / nitrocefin degradation yield (turnover): nitrocefin 60 µM; for Initial nitrocefin-degradation reaction rate, V0: Hepes pH 7.4, average of the six runs; for nitrocefin degradation yield (turnover): PSMα assemblies 350 µM, A480, monitored 2 h (Fig. 2a); for nitrocefin degradation yield (turnover) / initial rate of nitrocefin degradation reaction (V0): Hepes 50 mM pH 7.4, 20 °C; for initial rate of nitrocefin degradation reaction (V0): peptide 170 µM, initial nitrocefin 107 µM, first 15 min (Fig. 3f)
Protocol: Nitrocefin, a β-lactam widely used as a surrogate substrate of Penicillin in β-lactamase activity assay, was used as a substrate. NC degradation was monitored for 2 h. Nitrocefin stock solution was dissolved in acetonitrile (20 mM) and then diluted with Hepes buffer (50 mM, pH 7.4) to nitrocefin concentration of 360 µM (further dilutions to lower concentrations were made with the 360 µM NC stock). All nitrocefin samples were kept on ice in cold conditions and any further dilution or mixing was performed in ice-cold conditions to avoid self-hydrolysis background reaction. […] Immediately after mixing the samples, the plate was transferred to 20̊ °C pre-cooled plate reader (Multiskan GO, Thermo Scientific, Waltham, MA) and shaken slowly for 10 s. Then, the absorbance of degraded nitrocefin was measured for 2 h at interval of 20 s at λ = 480 nm. Initial production rates (V0) were calculated by slope of the initial linear range of degraded-nitrocefin production at the first 15 min. The reported results are and average of at least five separate measurements (the exact number of repeats, N, is reported next to the values). Each experiment also included blank samples of nitrocefin substrate diluted with buffer instead of PSMα. […] The initial rate calculations were performed while also subtracting the self-degradation of the substrate, to ensure that this product absorbance is a result of PSMα presence.
The initial rates of degraded-nitrocefin production were calculated from the slopes of the first 15 min of measurement as reported above. The initial rates (V0) were fitted using non-linear regression applied with the solver function in excel, either to Michalis–Menten equation V=Vmax.[S]/(KM+S) Where Vmax. Stands for maximal reaction rate, KM stands for Michalis–Menten constant, [S] stands for the substrate molar concentration. Each initial rate value was presented as average ± SEM. The kinetic parameters were calculated by fitting the data to MM model using non-linear regression, and the confidence intervals for each parameter were calculated accordingly.

[2] = not given; remark: listed apart in the source
[3] = test system: O=C(Cc1cccs1)N[C@@H]1C(=O)N2C(C(=O)O)=C(/C=C/c3ccc([N+](=O)[O-])cc3[N+](=O)[O-])CS[C@H]12; assay: Initial rates of nitrocefin hydrolysis by pre-assembled PSMα peptides (170 µM) followed by absorbance at 480 nm in 50 mM Hepes pH 7.4 at 20 °C, non-linear fit to the Michaelis-Menten equation.; assay type: biochemical
Protocol: Measurements of V0 as function of initial substrate (nitrocefin) concentrations (keeping the PSMα concentration constant at 170 µM, assuring amyloid formation, e.g., above the 30 μM threshold) are depicted in Fig. 2c. […] Table S1 summarizes the pertinent enzymatic parameters extracted from the initial reaction rate data in Fig. 2c using non-linear regression fit to a MM reaction model. Figure 2d presents the catalytic efficiencies, calculated for each peptide by dividing the turnover rate by the MM-constant (Kcat/KM), considered a measure for both substrate binding affinity and conversion kinetics into product.
(§1) Nitrocefin, a β-lactam widely used as a surrogate substrate of Penicillin in β-lactamase activity assay, was used as a substrate. NC degradation was monitored for 2 h. Nitrocefin stock solution was dissolved in acetonitrile (20 mM) and then diluted with Hepes buffer (50 mM, pH 7.4) to nitrocefin concentration of 360 µM (further dilutions to lower concentrations were made with the 360 µM NC stock). All nitrocefin samples were kept on ice in cold conditions and any further dilution or mixing was performed in ice-cold conditions to avoid self-hydrolysis background reaction. 120 µL of the pre-cooled nitrocefin solutions were mixed inside precooled clear 96-well plate (Greiner F-bottom) with 60 µL of pre-incubated PSMα solution (510 µM PSMα, incubated in DIW and later buffered in Hepes 50 mM, pH 7.4). Immediately after mixing the samples, the plate was transferred to 20̊ °C pre-cooled plate reader (Multiskan GO, Thermo Scientific, Waltham, MA) and shaken slowly for 10 s. Then, the absorbance of degraded nitrocefin was measured for 2 h at interval of 20 s at λ = 480 nm. Initial production rates (V0) were calculated by slope of the initial linear range of degraded-nitrocefin production at the first 15 min. The reported results are and average of at least five separate measurements (the exact number of repeats, N, is reported next to the values). Each experiment also included blank samples of nitrocefin substrate diluted with buffer instead of PSMα. All presented results include subtraction of buffer control. The initial rate calculations were performed while also subtracting the self-degradation of the substrate, to ensure that this product absorbance is a result of PSMα presence.
The initial rates of degraded-nitrocefin production were calculated from the slopes of the first 15 min of measurement as reported above. […] The kinetic parameters were calculated by fitting the data to MM model using non-linear regression, and the confidence intervals for each parameter were calculated accordingly. […]
Values derive from the fitting of the initial rates to MM model and are presented as calculated-value ± confidence interval. […]

[4] = test system: O=C(Cc1cccs1)N[C@@H]1C(=O)N2C(C(=O)O)=C(/C=C/c3ccc([N+](=O)[O-])cc3[N+](=O)[O-])CS[C@H]12; assay: Source-data fits for PSMα variants (170 µM): initial rates of nitrocefin hydrolysis (up to 240 µM) by absorbance at 480 nm in 50 mM Hepes pH 7.4 at 20 °C.; assay type: biochemical
Protocol: as §1
The initial rates of degraded-nitrocefin production were calculated from the slopes of the first 15 min of measurement as reported above. […] The kinetic parameters were calculated by fitting the data to MM model using non-linear regression, and the confidence intervals for each parameter were calculated accordingly.

[5] = AVG of runs, fit of V0 vs NC concentration
[6] = Michaelis-Menten fit of nitrocefin titration, single run, block r246-r259
[7] = Michaelis-Menten fit of nitrocefin titration, single run, block r262-r275
[8] = Michaelis-Menten fit of nitrocefin titration, single run, block r278-r291
[9] = Michaelis-Menten fit of nitrocefin titration, single run, block starting r293

Molecule: CC[C@H](C)[C@H](NC(=O)CNC(=O)[C@@H](N)CCSC)C(=O)N[C@H](C(=O)N[C@@H](C)C(=O)NCC(=O)N[C@H](C(=O)N[C@H](C(=O)N[C@@H](CCCCN)C(=O)N[C@@H](Cc1ccccc1)C(=O)N[C@H](C(=O)N[C@@H](CCCCN)C(=O)NCC(=O)N[C@@H](CC(C)C)C(=O)N[C@H](C(=O)N[C@@H](CCC(=O)O)C(=O)N[C@@H](CCCCN)C(=O)N[C@@H](Cc1ccccc1)C(=O)N[C@H](C(=O)NCC(=O)N[C@@H](CCCCN)C(=O)O)[C@@H](C)O)[C@@H](C)CC)[C@@H](C)CC)[C@@H](C)CC)[C@@H](C)CC)[C@@H](C)CC [PSMα2]
- Initial nitrocefin-degradation reaction rate, V0 ([1]; PSMα 4.01424 uM): 1.158
- Initial nitrocefin-degradation reaction rate, V0 ([1]; PSMα 6.02136 uM): -0.4109
- Initial nitrocefin-degradation reaction rate, V0 ([1]; PSMα 9.03205 uM): 0.9321
- Initial nitrocefin-degradation reaction rate, V0 ([1]; PSMα 13.5481 uM): 0.6055
- Initial nitrocefin-degradation reaction rate, V0 ([1]; PSMα 20.3221 uM): 1.35
- Initial nitrocefin-degradation reaction rate, V0 ([1]; PSMα 30.4832 uM): 1.3793
- Initial nitrocefin-degradation reaction rate, V0 ([1]; PSMα 45.7247 uM): 2.588
- Initial nitrocefin-degradation reaction rate, V0 ([1]; PSMα 68.5871 uM): 11.4228
- Initial nitrocefin-degradation reaction rate, V0 ([1]; PSMα 102.881 uM): 36.0382
- Initial nitrocefin-degradation reaction rate, V0 ([1]; PSMα 154.321 uM): 59.4111
- Initial nitrocefin-degradation reaction rate, V0 ([1]; PSMα 231.481 uM): 94.344
- Initial nitrocefin-degradation reaction rate, V0 ([1]; PSMα 347.222 uM): 117.315
- nitrocefin degradation yield (turnover) [1]: ~100%
- ATR-FTIR amide-I peak/maximum: 1650 cm⁻¹

Molecule: CC[C@H](C)[C@H](NC(=O)[C@H](C)NC(=O)[C@@H](N)CCSC)C(=O)N[C@H](C(=O)NCC(=O)N[C@H](C(=O)N[C@H](C(=O)N[C@H](C(=O)N[C@@H](CCCCN)C(=O)N[C@H](C(=O)N[C@H](C(=O)N[C@@H](CCCCN)C(=O)N[C@@H](C)C(=O)N[C@H](C(=O)N[C@H](C(=O)N[C@@H](CC(=O)O)C(=O)N[C@H](C(=O)N[C@@H](Cc1ccccc1)C(=O)N[C@@H](C)C(=O)N[C@@H](CCCCN)C(=O)O)[C@@H](C)CC)[C@@H](C)CC)[C@@H](C)CC)[C@@H](C)CC)[C@@H](C)CC)[C@@H](C)CC)[C@@H](C)CC)[C@@H](C)O)C(C)C [PSMα4]
- Initial nitrocefin-degradation reaction rate, V0 ([1]; PSMα 4.01424 uM): 0.5451
- Initial nitrocefin-degradation reaction rate, V0 ([1]; PSMα 6.02136 uM): 0.5496
- Initial nitrocefin-degradation reaction rate, V0 ([1]; PSMα 9.03205 uM): -0.2169
- Initial nitrocefin-degradation reaction rate, V0 ([1]; PSMα 13.5481 uM): 1.372
- Initial nitrocefin-degradation reaction rate, V0 ([1]; PSMα 20.3221 uM): 0.8016
- Initial nitrocefin-degradation reaction rate, V0 ([1]; PSMα 30.4832 uM): 1.8
- Initial nitrocefin-degradation reaction rate, V0 ([1]; PSMα 45.7247 uM): 3.313
- Initial nitrocefin-degradation reaction rate, V0 ([1]; PSMα 68.5871 uM): -1.824
- Initial nitrocefin-degradation reaction rate, V0 ([1]; PSMα 102.881 uM): 15.0899
- Initial nitrocefin-degradation reaction rate, V0 ([1]; PSMα 154.321 uM): 17.903
- Initial nitrocefin-degradation reaction rate, V0 ([1]; PSMα 231.481 uM): 15.5904
- Initial nitrocefin-degradation reaction rate, V0 ([1]; PSMα 347.222 uM): 26.4203
- nitrocefin degradation yield (turnover) [1]: ~ 15%
- ATR-FTIR amide-I peak/maximum: 1620 cm⁻¹

Molecule: CSCC[C@H](N)C(=O)N[C@@H](CCC(=O)O)C(=O)N[C@@H](Cc1ccccc1)C(=O)N[C@H](C(=O)N[C@@H](C)C(=O)N[C@@H](CCCCN)C(=O)N[C@@H](CC(C)C)C(=O)N[C@@H](Cc1ccccc1)C(=O)N[C@@H](CCCCN)C(=O)N[C@H](Cc1ccccc1)C(=O)N[C@H](Cc1ccccc1)C(=O)N[C@@H](CCCCN)C(=O)N[C@@H](CC(=O)O)C(=O)N[C@@H](CC(C)C)C(=O)N[C@@H](CC(C)C)C(=O)NCC(=O)N[C@@H](CCCCN)C(=O)N[C@@H](Cc1ccccc1)C(=O)N[C@@H](CC(C)C)C(=O)NCC(=O)N[C@@H](CC(N)=O)C(=O)N[C@@H](CC(N)=O)C(=O)O)C(C)C [α3-(d)FF]
- initial rate of nitrocefin degradation reaction (V0) [1]: 30 µM/h
- ATR-FTIR amide-I shoulder [2]: 1630 cm⁻¹
- ATR-FTIR amide-I peak/maximum: 1640 cm⁻¹

Molecule: KNKMFGVALFNFGFKEDLLFLK [α3-scrambled]
- Kcat [1, 5]: 3362023 s⁻¹
- Vmax [1, 5]: 31897124362167 µM/h
- E [1/Ms] (catalytic efficiency) ([1]; AVG of runs, fit of V0 vs nitrocefin (NC) concentration): 0.653 M⁻¹ s⁻¹
- Kcat [1, 6]: 406977 s⁻¹
- Vmax [1, 6]: 249070136309 µM/h
- Kcat [1, 7]: 0.0002595 s⁻¹
- Km [1, 7]: 438 µM
- Vmax [1, 7]: 158.82 µM/h
- Kcat [1, 8]: 0.0002595 s⁻¹
- Km [1, 8]: 438 µM
- Vmax [1, 8]: 158.82 µM/h
- Kcat [1, 9]: 3.556e-05 s⁻¹
- Km [1, 9]: 37.6 µM
- Vmax [1, 9]: 21.76 µM/h
- initial rate of nitrocefin degradation reaction (V0) [1]: 21 µM/h
- ATR-FTIR amide-I shoulder [2]: 1680 cm⁻¹
- ATR-FTIR amide-I peak/maximum: 1630 cm⁻¹

Molecule: MGIIAGIIKVIKSLIEQFTGK [PSMα1]
- Initial nitrocefin-degradation reaction rate, V0 ([1]; PSMα 4.01424 uM): 0.191
- Initial nitrocefin-degradation reaction rate, V0 ([1]; PSMα 6.02136 uM): -0.01182
- Initial nitrocefin-degradation reaction rate, V0 ([1]; PSMα 9.03205 uM): -0.1032
- Initial nitrocefin-degradation reaction rate, V0 ([1]; PSMα 13.5481 uM): -0.1644
- Initial nitrocefin-degradation reaction rate, V0 ([1]; PSMα 20.3221 uM): -0.2267
- Initial nitrocefin-degradation reaction rate, V0 ([1]; PSMα 30.4832 uM): -0.2129
- Initial nitrocefin-degradation reaction rate, V0 ([1]; PSMα 45.7247 uM): -0.2655
- Initial nitrocefin-degradation reaction rate, V0 ([1]; PSMα 68.5871 uM): -0.7898
- Initial nitrocefin-degradation reaction rate, V0 ([1]; PSMα 102.881 uM): 9.2527
- Initial nitrocefin-degradation reaction rate, V0 ([1]; PSMα 154.321 uM): 10.6002
- Initial nitrocefin-degradation reaction rate, V0 ([1]; PSMα 231.481 uM): 20.6526
- Initial nitrocefin-degradation reaction rate, V0 ([1]; PSMα 347.222 uM): 27.2811
- nitrocefin degradation yield (turnover) [1]: ~ 50%
- ATR-FTIR amide-I peak/maximum: 1650 cm⁻¹

Molecule: MQFVAKLFKFFKNLLGKFLGNN-NH2 [α3-cationic]
- initial rate of nitrocefin degradation reaction (V0) [1]: around 60 µM/h
- ATR-FTIR amide-I peak/maximum: 1660 cm⁻¹

Molecule: PSMα1 (Staphylococcus aureus subsp. aureus NCTC 8325)
- Km [3]: 0.2 mM

Molecule: PSMα2 (Staphylococcus aureus subsp. aureus MW2)
- Km [3]: 0.23 mM

Molecule: PSMα3 (Staphylococcus aureus subsp. aureus NCTC 8325)
- Km [3]: 0.08 mM

Molecule: PSMα4 (Staphylococcus aureus subsp. aureus MW2)
- Km [3]: 0.2 mM

Molecule: a3-cationic (Staphylococcus aureus subsp. aureus NCTC 8325; D13N/E2Q)
- Km [4]: 772.188 µM
- Vmax [4]: 8.13 µM/min
- kcat [4]: 0.00116 s⁻¹
